For orientation: fraction unbound means free concentration divided by total concentration.

Consider one compound from patent publication US20240201204A1, “Biomarker and Druggable Target of Neurodegeneration” (University Hospitals Cleveland Medical Center, priority 2020, published 2024).

Where two headings read alike, the source gives them in different places.

The conditions of data set [1]: in vivo. On the procedure:
Diflunisal was administered PO and animals were euthanized at the indicated times post-dose. After peripheral blood collection, animals were perfused with 1×PBS to remove blood in the brain vasculature. Total plasma and brain levels of diflunisal were evaluated by LC-MS/MS and then converted to free drug levels after measurement of binding in mouse plasma and brain.
Diflunisal pharmacokinetics: Diflunisal levels in mouse plasma and brain were monitored by LC-MS/MS using an AB Sciex (Framingham, MA) 4000 QTRAP® mass spectrometer coupled to a Shimadzu (Columbia, MD) Prominence LC. Diflunisal was detected with the mass spectrometer in negative MRM (multiple reaction monitoring) mode by following the precursor to fragment ion transitions 248.9 to 204.9 (quantifier ion) and 248.9 to 184.9 (qualifier ion). An Agilent C18 XDB column (5 micron, 50×4.6 mm) was used for chromatography for PK studies with the following conditions: Buffer A: dH20+0.1% formic acid, Buffer B: acetonitrile+0.1% formic acid, 0-1.0 min 5% B, 1.0-1.5 min gradient to 100% B, 1.5-3.0 min 100% B, 3.0-3.2 min gradient to 5% B, 3.2-4.5 5% B. Tolbutamide (transition 269.1 to 169.9) from Sigma (St. Louis, MO) was used as an internal standard (IS). Pharmacokinetic studies were performed by injecting 8 week old C57BL/6J male mice with diflunisal formulated in 10% DMSO, 20% Kolliphor EL, 70% saline. 60 or 180 minutes post-dose, animals were anesthetized with ketamine (100 mg/kg) and xylazine (10 mg/kg) via intraperitoneal (IP) injection. Blood was collected using the anticoagulant ACD, and then brains were harvested after transcardial perfusion with 1×PBS. Tissues were weighed before snap freezing and blood spun at 9600×g to collect plasma which was stored frozen along with brain tissue at −80° C. until analysis. […] The concentration of drug in each time-point sample was quantified using Analyst software (Sciex). […] The limit of quantitation (LOQ) was defined as the lowest concentration at which back calculation yielded a concentration within 20% of theoretical.

The nature of data set [2]: Diflunisal protein binding by rapid equilibrium dialysis. It counts as in vitro ADME, mouse. Particulars: diluted 1:20 (final) with PBS, 37° C. On the procedure: (§1) Diflunisal protein binding: Protein binding of diflunisal in mouse plasma or brain homogenate was determined by rapid equilibrium dialysis using RED chambers (Thermo Scientific, Waltham, MA). On the day of the RED experiment, frozen mouse plasma and 4× homogenized brain was thawed in a water bath at 37° C. Then it was equilibrated for 45 minutes at 37° C. in an atmosphere of 5% CO2. The pH of PBS was confirmed within 7.4±0.1. The pH of plasma and brain was measured and adjusted to 7.4±0.1 using concentrated acid or base. Plasma and brain diluted at 1:20 (final) with PBS and used for all subsequent steps. An aliquot of plasma or brain was spiked with compound to a compound concentration of 5 μM and vortex mixed. […] Donor, dialysate, and plasma or brain stability samples were analyzed by using a matrix matching approach whereby each sample was mixed in a 1:1 ratio with the opposite medium (blank matrix or PBS). […] Diflunisal levels in both chambers were measured by LC-MS/MS in comparison to a standard curve prepared in 1:1 matrix: PBS as described above. For each matrix, stability was assessed by maintaining individual aliquots of compound-spiked matrix at 37° C. and 5% CO2 for 0 and 6 hours. […] Stability of diflunisal in plasma and brain was 99% over 6 hours as assessed by LC-MS/MS. Fraction unbound (fu) was determined based on the following equations: […]
On the technique in general: In equilibrium dialysis free small molecules cross a membrane that holds back macromolecules.

The nature of data set [3]: Diflunisal stability in plasma and brain homogenate. It counts as in vitro ADME. The settings on record: mouse plasma and brain homogenate, 37° C., 5% CO2, over 6 hours. The protocol:
as §1

The subject of a further data set is clinically-diagnosed TBI. The data set can be described thus: Pharmacoepidemiologic cohort analysis (MarketScan Medicare Supplemental database), incidence of TBI. It counts as in vivo, human. The settings on record: vs. PS-matched aspirin cohort, Cox regression model, 6 years of follow-up. From the text: (§2) Because ac-tau has been generally reported in the brains of subjects with AD, we evaluated the relationship between salsalate or diflunisal use and incidence of clinically-diagnosed TBI or AD by analyzing 7.23 million U.S. commercially-insured individuals (MarketScan Medicare Supplemental database). We conducted two cohort analyses to evaluate the predicted association, based on individual level of longitudinal patient data and pharmacoepidemiologic methods, as previously established (Cheng et al., 2018). Thus, our two cohorts included: (1) salsalate vs. a matched aspirin population and (2) diflunisal vs. a matched aspirin population (Table 2). For each comparison, we estimated the un-stratified Kaplan-Meier curves and conducted propensity score (PS) stratified (n strata=10) log-rank tests and a Cox regression model after adjusting age, race, sex, and disease comorbidities (including diabetes, hypertension, and coronary artery disease) using a propensity score-matching method (Methods).
Study cohorts. The IBM® MarketScan® Medicare Supplemental Database is one of the first in the U.S. to profile the healthcare experience of retirees with Medicare supplemental insurance paid by employers. The MarketScan Medicare Supplemental Database provides detailed cost, use and outcomes data for healthcare services performed in both inpatient and outpatient settings. […]

The test system of a further data set is Alzheimer's disease. The data set is described as follows: Pharmacoepidemiologic cohort analysis (MarketScan Medicare Supplemental database), incidence of AD. It counts as in vivo, human.
Description: as §2
Study cohorts. The IBM® MarketScan® Medicare Supplemental Database is one of the first in the U.S. to profile the healthcare experience of retirees with Medicare supplemental insurance paid by employers. The MarketScan Medicare Supplemental Database provides detailed cost, use and outcomes data for healthcare services performed in both inpatient and outpatient settings. For most of the population, the medical claims are linked to outpatient prescription drug claims and person-level enrollment data through the use of unique patient or enrollee identifiers. […] This feature makes the database a robust tool for pharmacoeconomic and outcomes research and helps provide insight into the drug use and spending patterns of older Americans. In this study, the pharmacoepidemiology study utilized the MarketScan Medicare Claims database from 2012 to 2017. The dataset included individual-level diagnosis codes, procedure codes and pharmacy claim data for 7.23 million patients. Pharmacy prescriptions of salsalate, diflunisal, and aspirin were identified by using RxNorm and National Drug Code (NDC).
Outcome measurement. For a subject, a drug episode is defined as from drug initiation to drug discontinuation. Specifically, drug initiation is defined as the first day of drug supply (i.e. 1st prescription date). Drug discontinuation is defined as the last day of drug supply (i.e. last prescription date+days of supply) and without drug supply for the next 60 days. In another word, gaps of less than 60-day of drug supply were allowed within a drug episode. The drug cohort included the first drug episode for each subject. For the final cohorts, demographic variables including age, race, sex and geographical location were collected. […]

The conditions of data set [4]: 500 mg diflunisal twice daily for 11 days; cited from earlier work.
A further data set relates to p300/CBP. Particulars: literature (Shirakawa et al., 2016); cited from earlier work.

As to `O=C(O)c1cc(-c2ccc(F)cc2F)ccc1O` [diflunisal], the “penetration into mouse brain” value in data set [1] is recorded as “modest penetration of diflunisal into mouse brain”. In addition, the “free drug plasma to brain ratio” value in data set [1] (male, C57BL/6J, mouse) is 55:1. For the same compound, the “total diflunisal plasma to brain ratio” value in data set [1] (male, C57BL/6J, mouse) is on record as “about 200:1”. Further, the fraction unbound at 6 h, 5 μM in data set [2] (pH 7.4, mouse brain homogenate, read-out: fraction unbound in brain tissue (fubrain)) is 0.05 ± 0.001; in data set [2] (pH 7.4, mouse plasma, read-out: fraction unbound in plasma (fuplasma)), 0.014 ± 0.002. In data set [3], the “stability in plasma and brain” value amounted to 99%. For the same compound, in the data set on clinically-diagnosed TBI, the “hazard ratio [HR], clinically-diagnosed TBI” value was determined as 0.61. Besides, the “incidence of AD, subgroup analysis” value in the data set with Alzheimer's disease (excluding patients with type 2 diabetes, hypertension, or coronary artery disease, vs. aspirin) is “associated with decreased incidence of AD”. The “hazard ratio [HR], AD” value in the data set with Alzheimer's disease (vs. PS-matched aspirin cohort, Cox regression model, 6 years of follow-up) is recorded as 0.17. For the same compound, the mean peak plasma levels in humans in data set [4] was 190 µg/mL. Also, the “inhibition of p300/CBP” value in the data set on p300/CBP is given as “demonstrated to inhibit p300/CBP”.
